In brackets after ≈: the same amount, converted by molar mass.
How the values were obtained:
[1] = Dissociation constant (pKa1)
[2] = Dissociation constant (pKa2)
Escherichia coli = experiment: Minimum inhibitory concentration against gram-negative Escherichia coli Vogel (EC-1); format: functional
[3] = system: Mycolicibacterium smegmatis; experiment: Minimum inhibitory concentration against Mycobacterium smegmatis; format: functional
Pseudomonas aeruginosa = experiment: Minimum inhibitory concentration against gram-negative Pseudomonas aeruginosa U1-18 (PA-7); format: functional
Staphylococcus aureus = experiment: Minimum inhibitory concentration against gram-positive Staphylococcus aureus H-228 (SA-13); format: functional
Streptococcus pyogenes = experiment: Minimum inhibitory concentration against gram-positive Streptococcus pyogenes C203 (SP1-1); format: functional
[4] = system: Mycolicibacterium fortuitum; experiment: Minimum inhibitory concentration against Mycobacterium fortuitum; format: functional

SMILES | pKa [1] | pKa [2] | MIC (Escherichia coli) | MIC [3] | MIC (Pseudomonas aeruginosa) | MIC (Staphylococcus aureus) | MIC (Streptococcus pyogenes) | MIC [4]
Cc1ccc(-n2cc(C(=O)O)c(=O)c3cc(F)c(N4CC(C)NC(C)C4)cc32)cc1 (configuration not stated) | 6.1 | 8.61 | 0.8 mg/L (≈ 1.95 µM) | 4 mg/L (≈ 9.77 µM) | 3.1 mg/L (≈ 7.57 µM) | 3.1 mg/L (≈ 7.57 µM) | > 3.1 mg/L | 1 mg/L (≈ 2.44 µM)
C[C@@H]1CN(c2c(F)c(N)c3c(=O)c(C(=O)O)cn(C4CC4)c3c2F)C[C@H](C)N1 [SPARFLOXACIN] |  |  | 0.025 mg/L (≈ 0.0637 µM) | 0.13 mg/L (≈ 0.331 µM) | 0.8 mg/L (≈ 2.04 µM) | 0.05 mg/L (≈ 0.127 µM) | 0.1 mg/L (≈ 0.255 µM) | 0.06 mg/L (≈ 0.153 µM)
O=C(O)c1cn(-c2ccc(Cl)cc2Cl)c2cc(N3CCNCC3)c(F)cc2c1=O |  |  | 0.4 mg/L (≈ 0.917 µM) | 4 mg/L (≈ 9.17 µM) | 3.1 mg/L (≈ 7.11 µM) | > 3.1 mg/L | > 3.1 mg/L | 2 mg/L (≈ 4.58 µM)
O=C(O)c1cn(-c2ccccc2F)c2cc(N3CCNCC3)c(F)cc2c1=O |  |  | 0.1 mg/L (≈ 0.259 µM) | 2 mg/L (≈ 5.19 µM) | 0.8 mg/L (≈ 2.08 µM) | 0.8 mg/L (≈ 2.08 µM) | 1.6 mg/L (≈ 4.15 µM) | 0.25 mg/L (≈ 0.649 µM)
CC1CN(c2cc3c(cc2F)c(=O)c(C(=O)O)cn3-c2ccc(F)cc2F)CC(C)N1 (configuration not stated) | 5.94 | 8.26 | 0.4 mg/L (≈ 0.927 µM) | 0.5 mg/L (≈ 1.16 µM) | 0.8 mg/L (≈ 1.85 µM) | 0.4 mg/L (≈ 0.927 µM) | 0.8 mg/L (≈ 1.85 µM) | 0.25 mg/L (≈ 0.579 µM)
CC1CN(c2cc3c(cc2F)c(=O)c(C(=O)O)cn3-c2ccccc2F)CC(C)N1 (configuration not stated) | 5.88 | 8.51 | 0.4 mg/L (≈ 0.968 µM) | 2 mg/L (≈ 4.84 µM) | 1.6 mg/L (≈ 3.87 µM) | 1.6 mg/L (≈ 3.87 µM) | 3.1 mg/L (≈ 7.5 µM) | 0.5 mg/L (≈ 1.21 µM)
Cc1ccc(-n2cc(C(=O)O)c(=O)c3cc(F)c(N4CC(C)NC(C)C4)cc32)c(F)c1 (configuration not stated) |  |  | 0.8 mg/L (≈ 1.87 µM) | 2 mg/L (≈ 4.68 µM) | 3.1 mg/L (≈ 7.25 µM) | 3.1 mg/L (≈ 7.25 µM) | > 3.1 mg/L | 1 mg/L (≈ 2.34 µM)
Cc1ccccc1-n1cc(C(=O)O)c(=O)c2cc(F)c(N3CCNCC3)cc21 | 5.98 | 8.59 | 0.4 mg/L (≈ 1.05 µM) | 8 mg/L (≈ 21 µM) | 1.6 mg/L (≈ 4.19 µM) | 3.1 mg/L (≈ 8.13 µM) | > 3.1 mg/L | 4 mg/L (≈ 10.5 µM)
O=C(O)c1cn(-c2ccc(F)cc2)c2cc(N3CCNCC3)c(F)cc2c1=O [SARAFLOXACIN] | 6.02 | 8.59 | 0.1 mg/L (≈ 0.259 µM) | 1 mg/L (≈ 2.59 µM) | 0.2 mg/L (≈ 0.519 µM) | 0.4 mg/L (≈ 1.04 µM) | 0.4 mg/L (≈ 1.04 µM) | 0.25 mg/L (≈ 0.649 µM)
Cc1c(F)ccc(-n2cc(C(=O)O)c(=O)c3cc(F)c(N4CC(C)NC(C)C4)cc32)c1F (configuration not stated) | 5.94 | 8.47 | 3.1 mg/L (≈ 6.96 µM) | 4 mg/L (≈ 8.98 µM) | > 3.1 mg/L | 1.6 mg/L (≈ 3.59 µM) | > 3.1 mg/L | 1 mg/L (≈ 2.24 µM)
O=C(O)c1cn(C2CC2)c2cc(N3CCNCC3)c(F)cc2c1=O [CIPROFLOXACIN] |  |  |  | 0.25 mg/L (≈ 0.754 µM) | 0.2 mg/L (≈ 0.604 µM) |  | 0.4 mg/L (≈ 1.21 µM) | 0.06 mg/L (≈ 0.181 µM)
Cc1ccc(-n2cc(C(=O)O)c(=O)c3cc(F)c(N4CCNCC4)cc32)c(C)c1 |  |  | 0.8 mg/L (≈ 2.02 µM) | 32 mg/L (≈ 80.9 µM) | 3.1 mg/L (≈ 7.84 µM) | > 3.1 mg/L | > 3.1 mg/L | 16 mg/L (≈ 40.5 µM)
CC1CN(c2cc3c(cc2F)c(=O)c(C(=O)O)cn3-c2ccccc2)CC(C)N1 (configuration not stated) | 6.12 | 8.58 | 0.4 mg/L (≈ 1.01 µM) | 4 mg/L (≈ 10.1 µM) | 1.6 mg/L (≈ 4.05 µM) | 1.6 mg/L (≈ 4.05 µM) | 3.1 mg/L (≈ 7.84 µM) | 2 mg/L (≈ 5.06 µM)
Cc1c(F)ccc(-n2cc(C(=O)O)c(=O)c3cc(F)c(N4CCNCC4)cc32)c1F | 5.87 | 8.54 | 0.8 mg/L (≈ 1.92 µM) | 8 mg/L (≈ 19.2 µM) | 3.1 mg/L (≈ 7.43 µM) | 1.6 mg/L (≈ 3.83 µM) | 3.1 mg/L (≈ 7.43 µM) | 0.5 mg/L (≈ 1.2 µM)
Cc1ccc(-n2cc(C(=O)O)c(=O)c3cc(F)c(N4CC(C)NC(C)C4)cc32)c(C)c1 (configuration not stated) | 6.05 | 8.24 | 3.1 mg/L (≈ 7.32 µM) | 16 mg/L (≈ 37.8 µM) | > 3.1 mg/L | > 3.1 mg/L | > 3.1 mg/L | 4 mg/L (≈ 9.45 µM)
O=C(O)c1cn(-c2ccccc2)c2cc(N3CCNCC3)c(F)cc2c1=O |  |  | 0.1 mg/L (≈ 0.272 µM) | 2 mg/L (≈ 5.44 µM) | 0.8 mg/L (≈ 2.18 µM) | 0.8 mg/L (≈ 2.18 µM) | 3.1 mg/L (≈ 8.44 µM) | 0.5 mg/L (≈ 1.36 µM)

Further lines, results first:

pKa [1] | pKa [2] | MIC (Escherichia coli) | MIC [3] | MIC (Pseudomonas aeruginosa) | MIC (Staphylococcus aureus) | MIC (Streptococcus pyogenes) | MIC [4] | SMILES
5.87 | 8.31 | 0.1 mg/L (≈ 0.248 µM) | 0.5 mg/L (≈ 1.24 µM) | 0.2 mg/L (≈ 0.496 µM) | 0.4 mg/L (≈ 0.992 µM) | 0.4 mg/L (≈ 0.992 µM) | 0.25 mg/L (≈ 0.62 µM) | O=C(O)c1cn(-c2ccc(F)cc2F)c2cc(N3CCNCC3)c(F)cc2c1=O
6.01 | 8.55 | 1.6 mg/L (≈ 3.91 µM) | 8 mg/L (≈ 19.5 µM) | > 3.1 mg/L | > 3.1 mg/L | > 3.1 mg/L | 1 mg/L (≈ 2.44 µM) | Cc1ccccc1-n1cc(C(=O)O)c(=O)c2cc(F)c(N3CC(C)NC(C)C3)cc21 (configuration not stated)
5.96 | 8.34 | 0.2 mg/L (≈ 0.501 µM) | 2 mg/L (≈ 5.01 µM) | 1.6 mg/L (≈ 4.01 µM) | 1.6 mg/L (≈ 4.01 µM) | 3.1 mg/L (≈ 7.76 µM) | 1 mg/L (≈ 2.5 µM) | Cc1ccc(-n2cc(C(=O)O)c(=O)c3cc(F)c(N4CCNCC4)cc32)c(F)c1
6.16 | 8.16 | 0.4 mg/L (≈ 0.936 µM) | 2 mg/L (≈ 4.68 µM) | 1.6 mg/L (≈ 3.74 µM) | 1.6 mg/L (≈ 3.74 µM) | > 3.1 mg/L | 2 mg/L (≈ 4.68 µM) | Cc1cc(F)ccc1-n1cc(C(=O)O)c(=O)c2cc(F)c(N3CC(C)NC(C)C3)cc21 (configuration not stated)
 |  | 0.2 mg/L (≈ 0.484 µM) | 1 mg/L (≈ 2.42 µM) | 0.8 mg/L (≈ 1.94 µM) | 0.4 mg/L (≈ 0.968 µM) | 0.8 mg/L (≈ 1.94 µM) | 0.25 mg/L (≈ 0.605 µM) | CC1CN(c2cc3c(cc2F)c(=O)c(C(=O)O)cn3-c2ccc(F)cc2)CC(C)N1 (configuration not stated)
5.75 | 8.37 | 1.6 mg/L (≈ 3.45 µM) | 4 mg/L (≈ 8.61 µM) | > 3.1 mg/L | > 3.1 mg/L | > 3.1 mg/L | 2 mg/L (≈ 4.31 µM) | CC1CN(c2cc3c(cc2F)c(=O)c(C(=O)O)cn3-c2ccc(Cl)cc2Cl)CC(C)N1 (configuration not stated)
6.11 | 8.37 | 0.2 mg/L (≈ 0.501 µM) | 4 mg/L (≈ 10 µM) | 0.4 mg/L (≈ 1 µM) | 0.8 mg/L (≈ 2 µM) | 1.6 mg/L (≈ 4.01 µM) | 1 mg/L (≈ 2.5 µM) | Cc1cc(F)ccc1-n1cc(C(=O)O)c(=O)c2cc(F)c(N3CCNCC3)cc21
 |  | 0.4 mg/L (≈ 1.05 µM) | 4 mg/L (≈ 10.5 µM) | 1.6 mg/L (≈ 4.19 µM) | 3.1 mg/L (≈ 8.13 µM) | > 3.1 mg/L | 2 mg/L (≈ 5.24 µM) | Cc1ccc(-n2cc(C(=O)O)c(=O)c3cc(F)c(N4CCNCC4)cc32)cc1
